Laboratory results from patent publication US20200147070A1, “INDUCING PHOSPHOLIPIDOSIS FOR ENHANCING THERAPEUTIC EFFICACY” (Nextcea Inc., priority 2017, published 2020).

Key:
[1] = amiodarone 150 mg/kg/day co-administered with fluoxetine 10 mg/kg/day, 2 weeks, vs amiodarone alone
Description: Heart, liver, kidney and lung tissues were collected at necropsy at 2 weeks.

[2] = test system: di-22:6-BMP; experiment: PL biomarker di-22:6-BMP in tissues and urine; assay type: in vivo, Sprague-Dawley rats; settings: 2 weeks; for PL biomarker di-22:6-BMP in tissues (PL induced in both treatment groups): amiodarone 150 mg/kg/day alone or co-administered with fluoxetine 10 mg/kg/day, heart, liver, kidney, lung; for di-22:6-BMP biomarker in various tissues (PL induced): fluoxetine 10 mg/kg/day alone or co-administered with amiodarone 150 mg/kg/day
[3] = target: T1, cathepsin-B (Rattus norvegicus, UniProt P00787); experiment: Fluorescence-based cathepsin-B activity assay (RR-AFC substrate) in liver and spleen homogenates of treated rats; assay type: in vivo, Sprague-Dawley rats
T1 construct: from tissue; host or cells: liver and spleen homogenates of Sprague-Dawley rats
Description: Cathepsin-B is a lysosomal protease that plays an important role in intracellular proteolysis. […] Liver and spleen homogenates were analyzed using a fluorescence-based assay that utilized the preferred cathepsin-B substrate sequence RR labeled with amino-4-trifluoromethyl coumarin (AFC). Samples that contain cathepsin-B cleave the synthetic substrate RR-AFC to release free AFC.

[4] = test system: liver, kidney, and heart; experiment: Electron microscopic examination of tissue sections for phospholipidosis, 2-week repeat dose study; assay type: in vivo, Sprague-Dawley rats; settings: co-administered bedaquiline 60 mg/kg/day and citalopram 70 mg/kg/day, 2 weeks
Description: FIG. 3 is a set of electron micrographs depicting the accumulation of lysosomal myeloid bodies, indicative of PL, in rat tissues. Sprague-Dawley rats received once daily oral (PO) co-administration of bedaquiline (60 mg/kg/day) and citalopram (70 mg/kg/day) for 2 weeks.
Sprague-Dawley rats were co-administered bedaquiline (60 mg/kg/day) and citalopram (70 mg/kg/day) in a 2-week repeat dose study. Tissue sections (liver, kidney, and heart) were collected at 2 weeks for electron microscopic examination and PL biomarker/proteomic evaluation.

[5] = target: cathepsin B1 (Rattus norvegicus, UniProt P00787); settings: Wibo and Poole 1974; cited from earlier work
[6] = Fluoxetine tissue concentrations, alone or co-administered with amiodarone; assay type: in vivo, Sprague-Dawley rats; settings: fluoxetine 10 mg/kg/day co-administered with amiodarone 150 mg/kg/day, 2 weeks; tissues including brain
Text: FIG. 8 is a set of graphs showing that PL-induction increased drug tissue concentrations to enhance in vivo drug efficacy.
PL was induced as indicated by an increase in the di-22:6-BMP biomarker in various tissues.

T1 sequence (P00787 80-333): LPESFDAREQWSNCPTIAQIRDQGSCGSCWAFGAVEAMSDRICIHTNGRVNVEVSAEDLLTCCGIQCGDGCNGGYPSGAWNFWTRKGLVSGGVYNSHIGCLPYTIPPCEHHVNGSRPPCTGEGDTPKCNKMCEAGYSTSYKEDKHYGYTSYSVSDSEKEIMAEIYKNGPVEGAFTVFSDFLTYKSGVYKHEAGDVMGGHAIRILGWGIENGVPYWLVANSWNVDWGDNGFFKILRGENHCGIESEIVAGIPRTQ
Sequence of cathepsin B1 (P00787 80-333): as above

CCCCc1oc2ccccc2c1C(=O)c1cc(I)c(OCCN(CC)CC)c(I)c1 [amiodarone]
concentration of amiodarone in the lung tissue [1]: decreased
PL biomarker di-22:6-BMP in tissues (PL induced in both treatment groups) [2]: increase
di-22:6-BMP biomarker in various tissues (PL induced) [2]: increase
activity of cathepsin B in rat liver and spleen ([3]; PL induced by amiodarone): slowed
levels of free AFC in tissues compared to controls (cathepsin-B activity) ([3]; amiodarone 150 mg/kg/day, 2 weeks, liver and spleen homogenates): lower

COc1nc2ccc(Br)cc2cc1[C@@H](c1ccccc1)[C@@](O)(CCN(C)C)c1cccc2ccccc12 [bedaquiline]
multi-lamellar lysosomal inclusions and electron dense deposits (indicative of drug-induced PL) [4]: treatment-dependent increase
biomarker di-22:6-BMP in rat tissues and urine ([2]; co-administered bedaquiline 60 mg/kg/day and citalopram 70 mg/kg/day): increase

CCN(CC)CCCC(C)Nc1ccnc2cc(Cl)ccc12 (centres unmarked) [chloroquine]
cathepsin B1 activities [5]: inhibited

CNCCC(Oc1ccc(C(F)(F)F)cc1)c1ccccc1 (centres unmarked) [fluoxetine]
fluoxetine concentrations in tissues, compared to fluoxetine alone [6]: increased
PL biomarker di-22:6-BMP in tissues (PL induced in both treatment groups) [2]: increase
di-22:6-BMP biomarker in various tissues (PL induced) [2]: increase
